Legend:
[1] = molecular target: Beta-1 adrenergic receptor (Homo sapiens, UniProt P08588); assay: DRUGMATRIX: Adrenergic beta1 radioligand binding (ligand: [125I] Cyanopindolol); format: cell membranes, CHO-K1, Membrane; details: cho-k1; Not Active = under 50% inhibition at 10 µM
[2] = molecular target: Matrix metalloproteinase-9 (Homo sapiens, UniProt P14780); format: cell-based;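 also: inhibition of isolated MMP-9 enzyme activity toward a synthetic peptide substrate, from the DrugMatrix protease screening panel; in other assays of this panel Not Active means under 50% inhibition at 10 µM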
Chain of Matrix metalloproteinase-9 (P14780 whole entry): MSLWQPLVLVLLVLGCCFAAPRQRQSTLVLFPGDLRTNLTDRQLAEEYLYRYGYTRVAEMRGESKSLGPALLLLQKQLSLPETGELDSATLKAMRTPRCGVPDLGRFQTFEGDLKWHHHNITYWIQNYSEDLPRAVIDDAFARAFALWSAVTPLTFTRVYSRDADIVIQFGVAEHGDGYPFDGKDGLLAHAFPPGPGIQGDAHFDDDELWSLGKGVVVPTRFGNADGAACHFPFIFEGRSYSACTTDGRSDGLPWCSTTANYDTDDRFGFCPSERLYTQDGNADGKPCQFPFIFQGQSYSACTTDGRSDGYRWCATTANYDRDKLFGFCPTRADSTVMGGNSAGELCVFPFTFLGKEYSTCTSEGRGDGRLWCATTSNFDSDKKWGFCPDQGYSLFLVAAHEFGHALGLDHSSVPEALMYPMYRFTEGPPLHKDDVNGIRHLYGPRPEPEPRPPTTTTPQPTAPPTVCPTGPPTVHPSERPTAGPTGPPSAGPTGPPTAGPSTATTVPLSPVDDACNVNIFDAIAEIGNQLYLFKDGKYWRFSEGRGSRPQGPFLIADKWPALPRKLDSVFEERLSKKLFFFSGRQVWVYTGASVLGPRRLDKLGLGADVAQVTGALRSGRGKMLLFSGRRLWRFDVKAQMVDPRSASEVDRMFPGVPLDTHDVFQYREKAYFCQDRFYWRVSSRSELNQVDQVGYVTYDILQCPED

[3] = molecular target: Kappa-type opioid receptor (Homo sapiens, UniProt P41145); assay: DRUGMATRIX: Opiate kappa (OP2, KOP) radioligand binding (ligand: [3H] Diprenorphine); format: cell membranes, HEK293, Membrane; details: hek293; Not Active = under 50% inhibition at 10 µM
Chain of Kappa-type opioid receptor (P41145 whole entry): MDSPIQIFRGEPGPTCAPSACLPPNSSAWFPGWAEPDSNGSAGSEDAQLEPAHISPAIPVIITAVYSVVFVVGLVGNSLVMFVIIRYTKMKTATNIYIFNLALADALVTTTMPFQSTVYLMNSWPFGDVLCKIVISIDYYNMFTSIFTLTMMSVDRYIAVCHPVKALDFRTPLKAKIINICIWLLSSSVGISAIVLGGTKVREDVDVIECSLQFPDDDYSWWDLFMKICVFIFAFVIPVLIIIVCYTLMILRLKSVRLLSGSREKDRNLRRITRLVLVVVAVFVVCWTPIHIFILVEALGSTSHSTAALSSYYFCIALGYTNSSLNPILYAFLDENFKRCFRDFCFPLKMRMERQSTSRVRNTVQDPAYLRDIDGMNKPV

[4] = molecular target: Mitogen-activated protein kinase 3 (Homo sapiens, UniProt P27361); assay: DRUGMATRIX: Protein Serine/Threonine Kinase, ERK1 enzyme inhibition (substrate: Myelin Basic Protein); parameters: species or system Escherichia coli; details: Not Active = under 50% inhibition at 10 µM
Chain of Mitogen-activated protein kinase 3 (P27361 whole entry): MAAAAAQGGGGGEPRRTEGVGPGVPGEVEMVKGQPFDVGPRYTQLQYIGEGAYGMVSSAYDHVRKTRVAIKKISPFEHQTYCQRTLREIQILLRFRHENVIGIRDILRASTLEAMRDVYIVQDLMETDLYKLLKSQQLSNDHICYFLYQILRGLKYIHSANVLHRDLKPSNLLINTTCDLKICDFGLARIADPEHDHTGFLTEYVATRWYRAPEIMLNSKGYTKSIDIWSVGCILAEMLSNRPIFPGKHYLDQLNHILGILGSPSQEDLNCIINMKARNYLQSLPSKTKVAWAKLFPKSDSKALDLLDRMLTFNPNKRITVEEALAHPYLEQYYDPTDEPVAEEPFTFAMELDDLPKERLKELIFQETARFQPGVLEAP

[5] = DRUGMATRIX: Nicotinic Acetylcholine radioligand binding (ligand: [125I] Epibatidine); format: cell membranes, Membrane; details: imr-32; Not Active = under 50% inhibition at 10 µM
[6] = DRUGMATRIX: Sigma2 radioligand binding (ligand: [3H] Ifenprodil); format: cell membranes, Rattus norvegicus, Wistar, Brain, Membrane; details: Not Active = under 50% inhibition at 10 µM

Chain of Beta-1 adrenergic receptor (P08588 whole entry): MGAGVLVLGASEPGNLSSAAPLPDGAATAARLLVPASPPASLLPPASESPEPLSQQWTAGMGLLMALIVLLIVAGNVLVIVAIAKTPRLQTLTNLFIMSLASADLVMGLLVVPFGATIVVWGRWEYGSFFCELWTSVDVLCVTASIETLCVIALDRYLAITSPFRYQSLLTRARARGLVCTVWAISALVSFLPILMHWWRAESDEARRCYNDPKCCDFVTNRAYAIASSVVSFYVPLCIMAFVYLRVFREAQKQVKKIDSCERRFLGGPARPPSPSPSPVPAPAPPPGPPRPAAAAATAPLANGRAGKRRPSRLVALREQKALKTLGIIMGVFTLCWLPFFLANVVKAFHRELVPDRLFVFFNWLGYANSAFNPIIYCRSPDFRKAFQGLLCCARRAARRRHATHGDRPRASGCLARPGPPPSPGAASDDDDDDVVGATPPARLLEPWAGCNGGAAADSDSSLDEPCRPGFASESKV

Molecule | IC50 [1] | IC50 [2] | IC50 [3] | IC50 [4] | IC50 [5] | Ki [5] | IC50 [6] | Ki [6] | IC50 ([4]; read-out: IC50) [nM] | IC50 ([6]; read-out: IC50) [nM] | Ki ([6]; read-out: Ki) [nM] | Ki [1] | Ki [2] | Ki [4]
C[C@H]1C[C@H]2[C@@H]3CCC4=CC(=O)C=C[C@]4(C)[C@@]3(F)[C@@H](O)C[C@]2(C)[C@@]1(O)C(=O)CO [BETAMETHASONE] | Not Active | Not Active | Not Active | Not Active | Not Active | Not Active | Not Active | Not Active | – | – | – | – | – | –
CC(C)NCC(O)COc1ccc(CC(N)=O)cc1 (stereo not given) [ATENOLOL] | – | Not Active | Not Active | Not Active | Not Active | Not Active | Not Active | Not Active | – | – | – | – | – | –
O=C1c2ccccc2C(=O)C1c1ccccc1 [PHENINDIONE] | Not Active | Not Active | Not Active | Not Active | Not Active | Not Active | Not Active | Not Active | – | – | – | – | – | –
CCCCCCNC(=O)n1cc(F)c(=O)[nH]c1=O [CARMOFUR] | Not Active | Not Active | Not Active | – | Not Active | Not Active | Not Active | Not Active | 6120 | – | – | – | – | –
O=c1[nH]cnc2c1ncn2[C@H]1CC[C@@H](CO)O1 [DIDANOSINE] | Not Active | Not Active | Not Active | Not Active | Not Active | Not Active | Not Active | Not Active | – | – | – | – | – | –
CC(=O)Nc1ccc2c(c1)Cc1ccccc1-2 [2-ACETYLAMINOFLUORENE] | Not Active | Not Active | Not Active | Not Active | Not Active | Not Active | Not Active | Not Active | – | – | – | – | – | –
CC(C)(c1ccc(O)cc1)c1ccc(O)cc1 [BISPHENOL A] | Not Active | Not Active | Not Active | Not Active | Not Active | Not Active | Not Active | Not Active | – | – | – | – | – | –
CO[C@H]1O[C@@H]2O[C@@]3(C)CC[C@H]4[C@H](C)CC[C@@H]([C@H]1C)[C@@]24OO3 | Not Active | Not Active | Not Active | Not Active | Not Active | Not Active | Not Active | Not Active | – | – | – | – | – | –
C#C[C@]1(O)CC[C@H]2[C@@H]3CCC4=CC(=O)CC[C@@H]4[C@H]3CC[C@@]21C [NORETHINDRONE] | Not Active | Not Active | Not Active | Not Active | Not Active | Not Active | Not Active | Not Active | – | – | – | – | – | –
CN(Cc1cc(Br)cc(Br)c1N)C1CCCCC1 [BROMHEXINE] | Not Active | Not Active | Not Active | – | Not Active | Not Active | – | – | – | 59 | 36 | – | – | –
CC12CCC(CC1=O)C2(C)C (stereo not given) [CAMPHOR] | Not Active | Not Active | Not Active | Not Active | Not Active | Not Active | Not Active | Not Active | – | – | – | – | – | –
C[C@@H]1[C@H](O)[C@@H](C)/C=C/C=C/C=C/C=C/C=C/C=C/C=C/[C@H](O[C@@H]2O[C@H](C)[C@@H](O)[C@H](N)[C@@H]2O)C[C@@H]2O[C@](O)(C[C@@H](O)C[C@@H](O)[C@H](O)CC[C@@H](O)C[C@@H](O)CC(=O)O[C@H]1C)C[C@H](O)[C@H]2C(=O)O [AMPHOTERICIN B] | Not Active | Not Active | Not Active | – | Not Active | Not Active | Not Active | Not Active | – | – | – | – | – | –
Nc1ccc(Cc2ccc(N)cc2)cc1 | Not Active | Not Active | – | Not Active | Not Active | Not Active | Not Active | Not Active | – | – | – | – | – | –
CCN(CCO)CCCC(C)Nc1ccnc2cc(Cl)ccc12 (stereo not given) [HYDROXYCHLOROQUINE] | – | Not Active | Not Active | Not Active | Not Active | Not Active | Not Active | Not Active | – | – | – | – | – | –
O=C(O)COC(=O)Cc1ccccc1Nc1c(Cl)cccc1Cl [ACECLOFENAC] | Not Active | Not Active | Not Active | Not Active | Not Active | Not Active | Not Active | Not Active | – | – | – | – | – | –
O=C(O)CCc1nc(-c2ccccc2)c(-c2ccccc2)o1 [OXAPROZIN] | Not Active | Not Active | Not Active | Not Active | Not Active | Not Active | Not Active | Not Active | – | – | – | – | – | –

Molecule | IC50 [1] | IC50 [2] | IC50 [3] | IC50 [4] | IC50 [5] | Ki [5] | IC50 [6] | Ki [6] | IC50 ([4]; read-out: IC50) [nM] | IC50 ([6]; read-out: IC50) [nM] | Ki ([6]; read-out: Ki) [nM] | Ki [1] | Ki [2] | Ki [4]
C=CCN1CC[C@]23c4c5ccc(O)c4O[C@H]2/C(=N/N=C2\CC[C@@]4(O)[C@H]6Cc7ccc(O)c8c7[C@@]4(CCN6CC=C)[C@H]2O8)CC[C@@]3(O)[C@H]1C5 [NALOXONAZINE] | Not Active | Not Active | – | Not Active | Not Active | Not Active | Not Active | Not Active | – | – | – | – | – | –
O=C(O)CO [GLYCOLIC ACID] | Not Active | Not Active | Not Active | Not Active | Not Active | Not Active | Not Active | Not Active | – | – | – | – | – | –
COC(=O)Nc1nc2ccc(Sc3ccccc3)cc2[nH]1 [FENBENDAZOLE] | Not Active | Not Active | Not Active | Not Active | Not Active | Not Active | Not Active | Not Active | – | – | – | – | – | –
CC12CCC(CC1)C(C)(C)O2 [EUCALYPTOL] | Not Active | Not Active | Not Active | Not Active | Not Active | Not Active | Not Active | Not Active | – | – | – | – | – | –
C=C(Cl)Cl [1,1-DICHLOROETHENE] | Not Active | Not Active | – | Not Active | Not Active | Not Active | Not Active | Not Active | – | – | – | – | – | –
CCN1C[C@]2(COC)[C@H](O)C[C@H](OC)[C@@]34[C@@H]5C[C@@]6(O)[C@H](OC(=O)c7ccccc7)[C@@H]5[C@@](OC(C)=O)([C@@H]([C@H](OC)[C@H]23)[C@@H]14)[C@@H](O)[C@@H]6OC [ACONITINE] | Not Active | Not Active | – | Not Active | Not Active | Not Active | Not Active | Not Active | – | – | – | – | – | –
POVIDONE | Not Active | Not Active | – | Not Active | Not Active | Not Active | Not Active | Not Active | – | – | – | Not Active | Not Active | Not Active
C=CCO [ALLYL ALCOHOL] | Not Active | Not Active | – | Not Active | Not Active | Not Active | Not Active | Not Active | – | – | – | – | – | –
CHROMIC CHLORIDE | Not Active | Not Active | – | Not Active | Not Active | Not Active | Not Active | Not Active | – | – | – | Not Active | Not Active | Not Active
ClC1=C(Cl)[C@]2(Cl)[C@@H]3[C@@H]4C[C@@H]([C@H]5O[C@@H]45)[C@@H]3[C@@]1(Cl)C2(Cl)Cl [DIELDRIN] | Not Active | Not Active | – | Not Active | Not Active | Not Active | Not Active | Not Active | – | – | – | – | – | –
CARBOXYMETHYLCELLULOSE | Not Active | Not Active | – | Not Active | Not Active | Not Active | Not Active | Not Active | – | – | – | Not Active | Not Active | Not Active
COPPER(II) OXIDE | Not Active | Not Active | – | Not Active | Not Active | Not Active | Not Active | Not Active | – | – | – | Not Active | Not Active | Not Active
COc1ccccc1OCCNCC(O)COc1cccc2[nH]c3ccccc3c12 (stereo not given) [CARVEDILOL] | – | Not Active | Not Active | Not Active | Not Active | Not Active | Not Active | Not Active | – | – | – | – | – | –
Cc1c(N)nc([C@H](CC(N)=O)NC[C@H](N)C(N)=O)nc1C(=O)N[C@H](C(=O)N[C@H](C)[C@@H](O)[C@H](C)C(=O)N[C@H](C(=O)NCCc1nc(-c2nc(C(=O)NCCC[S+](C)C)cs2)cs1)[C@@H](C)O)[C@@H](O[C@@H]1O[C@@H](CO)[C@@H](O)[C@H](O)[C@@H]1O[C@H]1O[C@H](CO)[C@@H](O)[C@H](OC(N)=O)[C@@H]1O)c1c[nH]cn1.[Br-] [BLEOMYCIN A2] | – | Not Active | Not Active | Not Active | Not Active | Not Active | Not Active | Not Active | – | – | – | – | – | –
O=C(O)CNCP(=O)(O)O [GLYPHOSATE] | Not Active | Not Active | – | Not Active | Not Active | Not Active | Not Active | Not Active | – | – | – | – | – | –
COc1cc([C@@H]2c3cc4c(cc3[C@H](O)[C@H]3COC(=O)[C@H]23)OCO4)cc(OC)c1OC [PODOFILOX] | Not Active | Not Active | – | Not Active | Not Active | Not Active | Not Active | Not Active | – | – | – | – | – | –

— ChEMBL document CHEMBL1909046, “DrugMatrix in vitro pharmacology data”
